Reference: BigSolDB 2.1

CC(C)(C)c1ccc2c(c1)C(=O)c1ccccc1C2=O
solubility (mole fraction)
Details	303.15 K	308.15 K	313.15 K	318.15 K	323.15 K	333.15 K
in 2,6-dimethyl-4-heptanol	0.0245	0.0351	0.0461	0.0635	0.0998	0.21
in mesitylene	0.282	0.317	0.345	0.386	0.443	0.604
in trioctyl phosphate	0.169	0.185	0.209	0.254	0.296	0.39
